Measured values from PubChem BioAssay (NCI).
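Test compounds were applied to cells in 96-well plates for 48 hours at 5 doses. The concentration for full growth arrest is given as TGI.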 Where a SMILES comes first, the peptide text is derived from it.

What was measured:
Assay in all cases: NCI anticancer screen, dose series, 48 h
[1] = system: NCI-H23 lung
[2] = system: SK-OV-3 ovarian
[3] = system: IGROV1 ovarian
[4] = system: EKVX NSCLC
[5] = system: SN12C renal

Structure (SMILES)	TGI [1]	TGI [2]	TGI [3]	TGI [4]	TGI [5]
O=C(O)Cc1cccc2c1OC(c1ccccc1)C(C(=O)c1ccccc1)C2=O (centres undefined)	> 100 µM	> 100 µM	> 100 µM	> 100 µM	> 100 µM
C[C@H]1CCCCC[C@@H]2CC(=O)CC2C(=O)CCC(=O)O1 (some centres undefined)	> 100 µM	–	> 100 µM	> 100 µM	> 100 µM
CCOC(=O)CCC(NC(=O)c1ccc(Nc2nc3ccccc3n3cccc23)cc1)C(=O)OCC (centres undefined)	> 100 µM	50.1 µM	> 100 µM	> 100 µM	–
O=C1/C(=C/c2ccccc2)N=C(c2ccccc2)N1C1Nc2cc3c(cc2S1)NC(N1C(=O)/C(=C/c2ccccc2)N=C1c1ccccc1)S3 (centres undefined)	39.3 µM	> 100 µM	> 100 µM	> 100 µM	–
COC(=O)n1c(=O)n(-c2ccccc2)c(=O)n1C(=O)Nc1ccccc1	> 100 µM	> 100 µM	> 100 µM	> 100 µM	–
COc1cc2c(cc1OC)C1CCc3ccccc3CN1CC2 (centres undefined)	> 100 µM	> 100 µM	> 100 µM	> 100 µM	> 100 µM
CN(C)/C=C(\C(=O)c1ccccc1)n1nc(-c2ccccc2)cc1-c1ccccc1	> 10 µM	> 10 µM	> 10 µM	> 10 µM	> 10 µM
CCCN(CCC)c1cc2c(cc1F)c(=O)c(C(=O)O)cn2-c1ccc(N2CCN(C)CC2)cn1	35 µM	28.5 µM	27.6 µM	34.2 µM	46 µM
C/C=C/C(C#N)(Cc1ccccc1)OP1(=O)OC(c2ccccc2)C(C)N1C (centres undefined)	> 100 µM	> 100 µM	> 100 µM	> 100 µM	> 100 µM
CN(C)c1nc(=NCc2cccs2)ss1	> 10 µM	> 10 µM	> 10 µM	> 10 µM	> 10 µM
COc1ccc(OC)c(-c2nc3ccccc3c(=O)[nH]2)c1	> 100 µM	> 100 µM	> 100 µM	> 100 µM	> 100 µM
Cc1nc(-c2cc3c(ccc4ccccc43)oc2=O)cc2c1c(=O)oc1ccc3ccccc3c12	> 100 µM	> 100 µM	> 100 µM	> 100 µM	–
Cc1cc(N(CCCCl)CCCCl)ccc1C=Nc1cccc(Cl)c1	27.7 µM	61.7 µM	35 µM	–	37.1 µM
CCN(CC)CCn1c2cc3c(cc2c(=O)c2cccnc21)OCO3	> 10 µM	> 10 µM	> 10 µM	> 10 µM	> 10 µM
COc1ccc2c(c1)CC[C@@H]1[C@@H]2CC[C@]2(C)C(=O)/C(=C/c3ccncc3)C[C@@H]12	> 100 µM	> 100 µM	> 100 µM	> 100 µM	> 100 µM
O=C(Nc1sccc1S(=O)(=O)c1ccc(Cl)cc1)C(F)(F)F	> 100 µM	> 100 µM	> 100 µM	> 100 µM	54.6 µM
O=C(/C=C\c1ccccc1)Oc1ccc(/C=C2\CCCCC2=O)cc1	> 100 µM	–	> 100 µM	> 100 µM	> 100 µM

Structure (SMILES)	TGI [1]	TGI [2]	TGI [3]	TGI [4]	TGI [5]
CC(=O)NC(CS)C(=O)NC(CO)C(=O)NC(CO)C(=O)NC(Cc1c[nH]c2ccccc12)C(=O)N1CCCC1C(=O)NC(CO)C(=O)NC(Cc1c[nH]c2ccccc12)C(=O)NC(Cc1c[nH]cn1)C(=O)NC(CO)C(=O)NC(Cc1c[nH]c2ccccc12)C(=O)NCC(=O)NCC(=O)NC(CC(=O)O)C(=O)NC(CCC(N)=O)C(=O)NC(CCCCN)C(=O)NC(Cc1ccccc1)C(=O)NC(CCCNC(=N)N)C(=O)NC(CCCCN)C(N)=O (centres undefined) (Ac-CSSWPSWHSWGGDQKFRK-NH2; configuration not given here)	> 25 µM	> 25 µM	> 25 µM	> 25 µM	> 25 µM
CCOC(=O)CCC(C(=O)OCC)n1nnc2ccc(Nc3c(C)[n+]([O-])c4cc(Cl)ccc4[n+]3[O-])cc21 (centres undefined)	69.4 µM	> 100 µM	79 µM	> 100 µM	66.9 µM
CCO/C=N/C1=C(C#N)C(c2ccc(Cl)cc2)c2c(-c3ccccc3)nn(-c3ccccc3)c2O1 (centres undefined)	24.5 µM	48.2 µM	45.2 µM	> 31.6 µM	> 100 µM
NC1CC(=O)c2csc(Cl)c21 (centres undefined)	54 µM	31.1 µM	42.2 µM	35.9 µM	14.2 µM
CC1=C(C#N)C2C(=C(N)Oc3ccccc32)C(N)=N1 (centres undefined)	–	> 100 µM	76.7 µM	73.8 µM	72.8 µM
c1ccc(N=c2sc3ccccc3sc2=Nc2ccccc2)cc1	3.82 µM	11.8 µM	3.08 µM	7.26 µM	3.15 µM
CC(C)[Si](OC1=C(C(=O)N(C)c2ccccc2Cl)CCCC1)(C(C)C)C(C)C	31.4 µM	28.5 µM	31.4 µM	28 µM	–
CCCNC(C#N)c1ccc(OCCCCCCCCCCOc2ccc(C(C#N)NCCC)cc2)cc1 (centres undefined)	> 100 µM	> 100 µM	> 100 µM	> 100 µM	> 100 µM
OCc1ccc2c(c1)CC1(C2)Cc2cc3c(cc2C1)CCC3	> 100 µM	> 100 µM	> 100 µM	> 100 µM	> 50.8 µM
Cc1c2cccc-2ccc2c1[nH]c1ccc(Br)cc12	22.4 µM	28.7 µM	15 µM	6.11 µM	27.2 µM
CN(C)CCCNc1ccnc2cc([N+](=O)[O-])ccc12	25.4 µM	62.3 µM	12.8 µM	–	39.9 µM
CSCCCNC(=O)c1csc(-c2csc(CCN)n2)n1	> 100 µM	> 100 µM	> 100 µM	> 100 µM	> 100 µM
O=C1CSC(c2ccc(Cl)cc2)N1c1ccc(-c2ccc(-n3c(-c4ccccc4)nc4ccccc4c3=O)cc2)cc1 (centres undefined)	> 100 µM	> 100 µM	> 100 µM	> 100 µM	> 100 µM
O=C1C[C@@H](Sc2ccccc2)C2(OCCO2)[C@H]2ON3CCC[C@@H]3[C@@H]12	17.9 µM	27.9 µM	4.87 µM	–	7.52 µM
CN1C(=O)c2c(c3c4ccccc4n(C4OC(CO)C(O)C(O)C4O)c3c3[nH]c4ccccc4c23)C1=O (centres undefined)	9.6 µM	10.9 µM	4.1 µM	9.09 µM	9.71 µM
COCOCC1CCCN1CN1CCC[C@H]1COCOC (some centres undefined)	> 100 µM	> 100 µM	> 100 µM	> 100 µM	> 100 µM
